As a reminder, the AC50 is the midpoint of the concentration-response curve, whichever way the signal moves. The term CC50 denotes the concentration that lowers cell viability or growth by half. The EC50 is the concentration giving half of the maximal effect.

Experiment [1] has as its target Eukaryotic translation initiation factor 4H (Homo sapiens, UniProt Q15056). In words: eIF4H inhibition in translation initiation, SAR follow-up (AID 435011). Type of experiment: functional.
The target in experiment [2] is T1, Polyadenylate-binding protein 1 (Homo sapiens, UniProt P11940). In words: PABP inhibition in translation initiation, SAR follow-up (AID 435018). Type of experiment: functional.
T1 sequence (P11940 whole entry): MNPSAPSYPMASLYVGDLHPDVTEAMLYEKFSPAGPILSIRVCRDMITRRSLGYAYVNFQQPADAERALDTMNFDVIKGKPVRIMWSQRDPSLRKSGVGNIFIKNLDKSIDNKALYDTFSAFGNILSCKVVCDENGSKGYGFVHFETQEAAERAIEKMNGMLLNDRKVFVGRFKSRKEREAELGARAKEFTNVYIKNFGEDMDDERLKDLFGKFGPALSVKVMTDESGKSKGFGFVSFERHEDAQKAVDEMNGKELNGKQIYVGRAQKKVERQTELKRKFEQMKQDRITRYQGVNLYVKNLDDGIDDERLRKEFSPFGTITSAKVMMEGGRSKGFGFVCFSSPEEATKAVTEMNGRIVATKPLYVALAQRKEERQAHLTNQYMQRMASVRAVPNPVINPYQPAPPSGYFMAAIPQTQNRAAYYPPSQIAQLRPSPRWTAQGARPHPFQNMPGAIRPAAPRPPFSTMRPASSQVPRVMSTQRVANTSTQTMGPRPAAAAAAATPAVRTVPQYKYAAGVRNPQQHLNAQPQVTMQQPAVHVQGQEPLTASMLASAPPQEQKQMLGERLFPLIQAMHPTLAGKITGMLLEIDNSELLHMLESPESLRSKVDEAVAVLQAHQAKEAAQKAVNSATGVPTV
The target of experiment [3] is Paired box protein Pax-8 (Homo sapiens, UniProt Q06710). Nature of the experiment: inhibitors of PAX8-driven TPO luciferase reporter, dose response, RMG-I cells, cherry-pick (AID 687027).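 Note: luciferase reporter driven by Pax8 target thyroperoxidase promoter measured by SteadyGlo luminescence.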 It is filed as functional, cell-based. (In a reporter assay the amount or activity of a reporter protein is the signal.)
The target in experiment [4] is T2, Tyrosyl-DNA phosphodiesterase 2 (Homo sapiens, UniProt O95551).
T2 sequence (O95551 whole entry): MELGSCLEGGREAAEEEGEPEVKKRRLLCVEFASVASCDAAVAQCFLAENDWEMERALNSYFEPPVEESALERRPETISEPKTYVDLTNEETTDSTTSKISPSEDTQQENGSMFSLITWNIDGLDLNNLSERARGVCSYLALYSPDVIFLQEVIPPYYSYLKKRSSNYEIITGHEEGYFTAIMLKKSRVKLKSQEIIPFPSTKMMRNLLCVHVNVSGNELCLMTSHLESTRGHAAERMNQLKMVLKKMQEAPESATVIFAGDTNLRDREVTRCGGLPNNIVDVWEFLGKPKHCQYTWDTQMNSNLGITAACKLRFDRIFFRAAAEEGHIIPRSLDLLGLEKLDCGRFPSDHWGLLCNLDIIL
Nature of the experiment: human TDP2 enzyme inhibitors, dose response, biochemical, epi absorbance, IC50 (AID 743297).

For experiment [5], the system named is CHO. Nature of the experiment: cytotoxicity in TLR9-MyD88 CHO cells, dose response, cytotoxicity control for TLR9-MyD88 binding inhibitor project, cell-based, luminescence (AID 588339).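 Note: CHO cells stably coexpressing TLR9 and MyD88 fusions from primary screen; compound exposure lasted 48 hours before viability readout.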 It is filed as functional, hamster. As to conditions: Cricetulus griseus.
Experiment [6] deals with T3, Hexokinase HKDC1 (Homo sapiens, UniProt Q2TB90).
T3 sequence (Q2TB90 whole entry): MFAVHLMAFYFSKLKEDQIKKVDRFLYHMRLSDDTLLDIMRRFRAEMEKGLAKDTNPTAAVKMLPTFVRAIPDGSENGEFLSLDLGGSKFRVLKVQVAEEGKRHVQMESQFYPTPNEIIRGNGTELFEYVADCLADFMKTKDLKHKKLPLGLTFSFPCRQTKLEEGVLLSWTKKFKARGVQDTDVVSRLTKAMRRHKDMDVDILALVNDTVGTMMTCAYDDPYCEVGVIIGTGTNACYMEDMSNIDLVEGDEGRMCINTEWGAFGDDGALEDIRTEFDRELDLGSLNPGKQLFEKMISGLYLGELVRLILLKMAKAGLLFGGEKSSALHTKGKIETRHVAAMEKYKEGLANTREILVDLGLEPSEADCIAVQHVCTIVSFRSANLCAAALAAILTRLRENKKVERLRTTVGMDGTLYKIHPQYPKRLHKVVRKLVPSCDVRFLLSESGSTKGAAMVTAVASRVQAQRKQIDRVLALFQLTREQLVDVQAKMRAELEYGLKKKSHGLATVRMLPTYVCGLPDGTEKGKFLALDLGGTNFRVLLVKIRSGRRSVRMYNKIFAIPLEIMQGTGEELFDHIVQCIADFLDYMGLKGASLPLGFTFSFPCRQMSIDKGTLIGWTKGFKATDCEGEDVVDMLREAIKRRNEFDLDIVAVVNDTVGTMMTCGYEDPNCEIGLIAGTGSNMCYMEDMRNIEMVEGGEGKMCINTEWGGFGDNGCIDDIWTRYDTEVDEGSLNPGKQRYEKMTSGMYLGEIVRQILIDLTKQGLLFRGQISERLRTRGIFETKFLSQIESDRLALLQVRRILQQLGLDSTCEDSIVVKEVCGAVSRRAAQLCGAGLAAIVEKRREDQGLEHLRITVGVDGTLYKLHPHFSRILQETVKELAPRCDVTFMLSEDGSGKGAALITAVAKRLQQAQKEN
In words: HKDC1 hexokinase inhibitors, dose response, biochemical, W721R variant (AID 504729). It is filed as functional.

A short description of experiment [7]: THP-1 cell cytotoxicity, dose response, cytotoxicity control for Vif-APOBEC3G degradation inhibitor project, THP-1 cells (AID 1117359). It is filed as functional. To be noted: Human immunodeficiency virus 1, THP-1.
Experiment [8] concerns the target T1, Polyadenylate-binding protein 1. Nature of the experiment: PABP1 MLLE–PAM2 interaction inhibitors, dose response, miRNA deadenylation inhibitor project, biochemical, fluorescence polarization, Cy5-PAM2 peptide, secondary (AID 602260). It is filed as functional. To be noted: read-out: IC50_Mean. In general terms: Polarisation of emitted light reports the rotation of a fluorescent probe.

In experiment [9] the target is Beta Lactamase (Pseudomonas aeruginosa, UniProt Q932Y6). Nature of the experiment: beta-lactamase reporter inhibitor potency, dose response, artefact control for TLR9-MyD88 binding inhibitor project, BLA reporter cells, FRET fluorescence (AID 588341).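 Note: cell based assay in CHO-K1 cells stably expressing beta-lactamase.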 It is filed as cell-based.
Experiment [10] concerns the target T1, Polyadenylate-binding protein 1. Nature of the experiment: PABP1 MLLE–PAM2 binding inhibitor potency, dose response, biochemical, fluorescence polarization, FITC-PAM2 peptide (AID 602259). Type of experiment: functional. As to conditions: read-out: IC50_Mean.
Experiment [11] in a line: non-specific cell cytotoxicity, dose response, cytotoxicity control for PAX8 inhibitor project, plate reader, dry powder samples (AID 743021). Type of experiment: functional, cell-based.
Experiment [12] concerns Vero. Nature of the experiment: Vero cell cytotoxicity, cytotoxicity control for flavivirus capping enzyme inhibitors (AID 588742). It is filed as functional. To be noted: Chlorocebus sabaeus.
Experiment [13] addresses T4, Fatty acid synthase (Homo sapiens, UniProt P49327). In words: FAS thioesterase domain inhibitors, dose response, biochemical, kinetic fluorescence intensity (AID 624326).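 Note: rate of fluorescence rise from hydrolysis of a fluorogenic O-methyl fluorescein ester substrate.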 Type of experiment: functional.
The target of experiment [14] is Genome polyprotein (dengue virus type 2, UniProt P29990). Nature of the experiment: Dengue-2 NS5 methyltransferase inhibitors, primary screen, biochemical, confirmation dose response (AID 588689). It is filed as functional.
The target of experiment [15] is T4, Fatty acid synthase. In words: FAS thioesterase domain inhibitors, dose response, biochemical, endpoint fluorescence intensity, uHTS hits (AID 624327).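 Note: fluorescence from hydrolysis of an O-methyl fluorescein acyl ester substrate by the enzyme.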 It is filed as functional.
Experiment [16] concerns the target Heat shock protein HSP 90-alpha (Homo sapiens, UniProt P07900). It is filed as functional, organism-based.
Experiment [17] concerns HEK293. Nature of the experiment: cells. It is filed as functional, cell-based. As to conditions: Homo sapiens.
The subject of experiment [18] is HEK293. Nature of the experiment: NOD2 signaling inhibitors in MDP-stimulated cells, cell-based, uHTS, luminescence (AID 2001). It is filed as functional. To be noted: Homo sapiens.
The target in experiment [19] is Beta-galactosidase (Escherichia coli, UniProt Q8VNN2). In words: beta-galactosidase enzyme inhibitors and activators, dose response, artefact control for CCR6 antagonist project, biochemical, E. coli enzyme, set 3 (AID 504712). Type of experiment: functional.
For experiment [20], the target named is Nucleotide-binding oligomerization domain-containing protein 2 (Homo sapiens, UniProt Q9HC29). In words: NOD2 signaling inhibitors, cell-based, luminescence, uHTS, HEK293 (AID 1566). Type of experiment: functional.
Chain of Nucleotide-binding oligomerization domain-containing protein 2 (Q9HC29 whole entry, the tested form may be a part): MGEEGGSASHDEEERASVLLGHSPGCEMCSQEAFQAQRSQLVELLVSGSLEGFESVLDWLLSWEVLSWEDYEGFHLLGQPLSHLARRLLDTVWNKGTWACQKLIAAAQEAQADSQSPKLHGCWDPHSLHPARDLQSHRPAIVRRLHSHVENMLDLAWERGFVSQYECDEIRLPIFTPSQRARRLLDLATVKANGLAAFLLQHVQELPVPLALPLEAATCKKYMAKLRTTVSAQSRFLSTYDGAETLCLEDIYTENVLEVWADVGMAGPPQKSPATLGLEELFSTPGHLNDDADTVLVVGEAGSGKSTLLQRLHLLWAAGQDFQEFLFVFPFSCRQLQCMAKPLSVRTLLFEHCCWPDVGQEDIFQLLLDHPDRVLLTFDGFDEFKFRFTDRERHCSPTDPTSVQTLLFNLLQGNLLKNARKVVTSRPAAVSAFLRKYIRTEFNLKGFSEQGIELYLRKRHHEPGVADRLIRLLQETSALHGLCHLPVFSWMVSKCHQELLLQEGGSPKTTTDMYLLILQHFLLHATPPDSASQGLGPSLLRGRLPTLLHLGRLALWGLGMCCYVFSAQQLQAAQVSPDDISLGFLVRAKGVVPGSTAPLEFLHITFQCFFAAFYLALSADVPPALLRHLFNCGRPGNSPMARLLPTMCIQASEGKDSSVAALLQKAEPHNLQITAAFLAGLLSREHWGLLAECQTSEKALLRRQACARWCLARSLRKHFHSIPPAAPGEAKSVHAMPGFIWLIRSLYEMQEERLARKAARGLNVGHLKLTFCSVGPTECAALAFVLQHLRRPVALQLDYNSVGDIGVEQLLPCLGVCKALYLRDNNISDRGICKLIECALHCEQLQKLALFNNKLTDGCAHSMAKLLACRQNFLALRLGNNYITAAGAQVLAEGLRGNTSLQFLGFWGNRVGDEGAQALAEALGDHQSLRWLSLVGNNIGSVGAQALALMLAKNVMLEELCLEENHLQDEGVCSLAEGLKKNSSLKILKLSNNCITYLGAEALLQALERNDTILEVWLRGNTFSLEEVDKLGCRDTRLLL
Experiment [21] deals with HEK293. Nature of the experiment: NOD1 signaling inhibitors, primary screen, cell-based, luminescence, uHTS (AID 1578). It is filed as functional. As to conditions: Homo sapiens.
The test system of experiment [22] is HEK293. In words: cells. Type of experiment: functional, cell-based. To be noted: Homo sapiens. The source holds these as a separate data set.
Experiment [23] concerns HEK293. In words: cells. It is filed as functional, cell-based. As to conditions: Homo sapiens. This is another data set of the same source.
In experiment [24] the target is T5, CAAX prenyl protease 2 (Saccharomyces cerevisiae S288c, UniProt Q03530).
T5 sequence (Q03530 whole entry): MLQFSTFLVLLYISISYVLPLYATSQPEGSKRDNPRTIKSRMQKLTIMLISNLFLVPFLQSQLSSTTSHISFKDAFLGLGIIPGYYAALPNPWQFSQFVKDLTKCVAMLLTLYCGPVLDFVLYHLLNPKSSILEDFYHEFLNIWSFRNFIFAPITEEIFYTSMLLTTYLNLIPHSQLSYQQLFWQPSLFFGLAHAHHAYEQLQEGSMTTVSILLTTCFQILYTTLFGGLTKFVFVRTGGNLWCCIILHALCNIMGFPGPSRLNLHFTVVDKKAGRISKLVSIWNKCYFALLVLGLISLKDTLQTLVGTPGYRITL
Type of experiment: biochemical.

For experiment [25], the target named is T6, Coagulation factor XII (Homo sapiens, UniProt P00748).
T6 sequence (P00748 whole entry): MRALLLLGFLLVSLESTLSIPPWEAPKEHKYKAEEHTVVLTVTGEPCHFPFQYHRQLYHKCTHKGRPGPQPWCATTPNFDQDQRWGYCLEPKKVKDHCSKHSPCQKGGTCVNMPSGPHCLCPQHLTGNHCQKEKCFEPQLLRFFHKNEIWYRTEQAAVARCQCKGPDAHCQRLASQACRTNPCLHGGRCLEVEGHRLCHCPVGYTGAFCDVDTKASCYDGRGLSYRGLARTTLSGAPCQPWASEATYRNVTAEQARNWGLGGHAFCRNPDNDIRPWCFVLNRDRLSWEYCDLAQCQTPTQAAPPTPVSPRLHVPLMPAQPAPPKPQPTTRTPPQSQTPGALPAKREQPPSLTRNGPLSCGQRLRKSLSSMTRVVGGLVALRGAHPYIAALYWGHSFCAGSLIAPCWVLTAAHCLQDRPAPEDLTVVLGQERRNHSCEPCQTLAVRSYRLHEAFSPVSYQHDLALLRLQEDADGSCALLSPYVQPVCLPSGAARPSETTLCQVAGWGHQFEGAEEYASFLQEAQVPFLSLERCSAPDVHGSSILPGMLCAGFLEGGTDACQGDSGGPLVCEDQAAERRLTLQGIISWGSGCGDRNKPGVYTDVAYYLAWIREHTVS
Nature of the experiment: FXIIa inhibitor potency, concentration-response, biochemical (AID 716). It is filed as functional.

In experiment [26] the target is Glyceraldehyde-3-phosphate dehydrogenase (Homo sapiens, UniProt P04406).
For experiment [27], the target named is Alkaline phosphatase, placental type (Homo sapiens, UniProt P05187). In words: PLAP enzyme inhibitors, confirmation, biochemical, luminescence (AID 1512). Type of experiment: functional.
Chain of Alkaline phosphatase, placental type (P05187 whole entry): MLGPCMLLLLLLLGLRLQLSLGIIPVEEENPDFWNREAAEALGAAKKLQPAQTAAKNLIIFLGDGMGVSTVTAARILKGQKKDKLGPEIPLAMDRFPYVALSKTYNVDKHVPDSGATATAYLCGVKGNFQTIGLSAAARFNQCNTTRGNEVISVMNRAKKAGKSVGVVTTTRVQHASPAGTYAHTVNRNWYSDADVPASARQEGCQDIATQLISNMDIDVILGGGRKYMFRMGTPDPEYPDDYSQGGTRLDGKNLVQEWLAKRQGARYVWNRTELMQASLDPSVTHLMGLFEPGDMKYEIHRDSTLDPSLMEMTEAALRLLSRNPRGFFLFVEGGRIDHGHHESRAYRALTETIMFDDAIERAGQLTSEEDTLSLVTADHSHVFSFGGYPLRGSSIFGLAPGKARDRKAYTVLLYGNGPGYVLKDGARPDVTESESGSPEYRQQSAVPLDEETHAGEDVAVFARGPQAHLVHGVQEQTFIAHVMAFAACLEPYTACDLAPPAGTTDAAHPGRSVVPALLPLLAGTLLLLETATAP
For experiment [28], the target named is T7, Alkaline phosphatase, tissue-nonspecific isozyme (Homo sapiens, UniProt P05186).
T7 sequence (P05186 whole entry): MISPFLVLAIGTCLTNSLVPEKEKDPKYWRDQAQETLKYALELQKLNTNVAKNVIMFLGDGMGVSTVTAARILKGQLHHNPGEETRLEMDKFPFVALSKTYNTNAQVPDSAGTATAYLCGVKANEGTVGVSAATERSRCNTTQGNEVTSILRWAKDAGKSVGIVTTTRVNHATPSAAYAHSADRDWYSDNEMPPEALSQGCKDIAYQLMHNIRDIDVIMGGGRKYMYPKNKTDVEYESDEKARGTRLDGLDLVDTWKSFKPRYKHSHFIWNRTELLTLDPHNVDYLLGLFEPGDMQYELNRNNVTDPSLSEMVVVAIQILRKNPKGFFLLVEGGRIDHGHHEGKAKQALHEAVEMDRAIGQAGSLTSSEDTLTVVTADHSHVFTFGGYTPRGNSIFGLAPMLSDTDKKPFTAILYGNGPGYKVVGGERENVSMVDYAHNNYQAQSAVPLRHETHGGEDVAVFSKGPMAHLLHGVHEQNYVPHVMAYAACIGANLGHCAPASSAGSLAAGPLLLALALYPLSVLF
Nature of the experiment: human TNAP enzyme inhibitors, SAR follow-up, biochemical, luminescent, dose response (AID 1056).

Each structure is given as a SMILES string. Calls of active or inactive are those of the source.

T4 sequence (P49327 whole entry, the tested form may be a part): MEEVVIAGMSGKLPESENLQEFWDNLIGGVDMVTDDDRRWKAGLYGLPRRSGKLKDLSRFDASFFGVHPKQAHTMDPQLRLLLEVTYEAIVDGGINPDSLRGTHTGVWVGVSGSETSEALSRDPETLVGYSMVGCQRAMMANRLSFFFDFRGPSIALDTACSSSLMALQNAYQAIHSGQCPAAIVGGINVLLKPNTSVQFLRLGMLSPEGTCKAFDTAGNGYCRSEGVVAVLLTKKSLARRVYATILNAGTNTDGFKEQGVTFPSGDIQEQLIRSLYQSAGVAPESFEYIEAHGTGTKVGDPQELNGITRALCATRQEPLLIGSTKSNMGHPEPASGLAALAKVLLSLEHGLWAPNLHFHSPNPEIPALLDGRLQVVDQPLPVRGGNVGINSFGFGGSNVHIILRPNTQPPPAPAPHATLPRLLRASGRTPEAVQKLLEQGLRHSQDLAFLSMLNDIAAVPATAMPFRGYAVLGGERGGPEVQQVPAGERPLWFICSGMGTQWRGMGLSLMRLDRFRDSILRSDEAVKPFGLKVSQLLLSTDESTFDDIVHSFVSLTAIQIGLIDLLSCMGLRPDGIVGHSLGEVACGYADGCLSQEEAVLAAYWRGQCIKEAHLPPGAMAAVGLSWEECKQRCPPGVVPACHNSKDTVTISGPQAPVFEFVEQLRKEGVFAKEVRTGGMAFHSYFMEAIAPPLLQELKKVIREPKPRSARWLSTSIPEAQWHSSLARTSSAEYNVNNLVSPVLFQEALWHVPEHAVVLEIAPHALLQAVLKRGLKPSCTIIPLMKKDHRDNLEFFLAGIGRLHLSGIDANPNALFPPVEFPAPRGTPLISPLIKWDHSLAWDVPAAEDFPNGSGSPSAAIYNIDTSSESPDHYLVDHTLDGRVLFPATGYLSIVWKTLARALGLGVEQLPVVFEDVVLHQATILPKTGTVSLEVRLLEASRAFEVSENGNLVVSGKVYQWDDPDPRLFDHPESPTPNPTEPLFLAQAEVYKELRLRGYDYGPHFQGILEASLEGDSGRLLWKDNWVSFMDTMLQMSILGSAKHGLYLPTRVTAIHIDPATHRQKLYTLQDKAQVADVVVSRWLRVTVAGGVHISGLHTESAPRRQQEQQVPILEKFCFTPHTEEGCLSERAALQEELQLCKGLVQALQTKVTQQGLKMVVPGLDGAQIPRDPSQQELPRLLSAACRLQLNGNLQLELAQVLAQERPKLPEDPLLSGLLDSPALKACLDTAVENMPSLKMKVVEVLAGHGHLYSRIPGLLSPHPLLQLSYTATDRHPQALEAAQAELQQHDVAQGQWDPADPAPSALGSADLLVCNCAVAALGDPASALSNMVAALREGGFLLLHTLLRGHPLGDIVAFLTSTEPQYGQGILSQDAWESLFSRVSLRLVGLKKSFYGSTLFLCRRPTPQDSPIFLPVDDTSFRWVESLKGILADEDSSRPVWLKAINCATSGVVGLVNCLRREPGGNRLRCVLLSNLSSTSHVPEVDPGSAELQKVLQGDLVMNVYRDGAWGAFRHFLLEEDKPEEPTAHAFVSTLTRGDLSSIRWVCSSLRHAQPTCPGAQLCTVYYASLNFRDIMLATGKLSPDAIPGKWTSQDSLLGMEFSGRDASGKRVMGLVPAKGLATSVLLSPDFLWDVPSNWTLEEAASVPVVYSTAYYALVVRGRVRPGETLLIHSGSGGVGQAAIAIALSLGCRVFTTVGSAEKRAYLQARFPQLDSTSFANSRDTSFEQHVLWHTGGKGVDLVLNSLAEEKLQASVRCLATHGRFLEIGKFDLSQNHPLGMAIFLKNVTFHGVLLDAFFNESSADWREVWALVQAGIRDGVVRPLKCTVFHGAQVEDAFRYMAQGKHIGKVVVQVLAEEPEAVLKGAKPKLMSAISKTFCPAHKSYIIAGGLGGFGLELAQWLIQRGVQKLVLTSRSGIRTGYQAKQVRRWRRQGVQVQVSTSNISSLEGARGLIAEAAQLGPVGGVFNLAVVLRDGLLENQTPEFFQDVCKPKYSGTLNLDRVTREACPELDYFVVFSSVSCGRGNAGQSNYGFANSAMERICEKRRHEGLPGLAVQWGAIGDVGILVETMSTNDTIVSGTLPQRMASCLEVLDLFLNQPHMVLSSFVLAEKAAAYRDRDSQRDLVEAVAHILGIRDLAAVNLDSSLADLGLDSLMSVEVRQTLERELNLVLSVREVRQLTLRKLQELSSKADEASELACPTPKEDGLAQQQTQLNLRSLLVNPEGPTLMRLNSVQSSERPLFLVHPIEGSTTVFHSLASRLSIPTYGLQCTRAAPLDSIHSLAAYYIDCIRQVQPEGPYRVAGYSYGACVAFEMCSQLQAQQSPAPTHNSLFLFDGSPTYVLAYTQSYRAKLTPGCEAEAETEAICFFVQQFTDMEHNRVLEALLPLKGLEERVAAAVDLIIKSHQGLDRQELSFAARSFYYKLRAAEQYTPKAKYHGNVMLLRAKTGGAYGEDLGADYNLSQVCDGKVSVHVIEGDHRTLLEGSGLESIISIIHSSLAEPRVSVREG

For `COc1ccc(NC(=O)C2CCCN2C(=O)Oc2ccccc2)cc1` (stereo not drawn), the IC50 in [1] and in experiment [2] was > 100 µM (inactive) throughout.
In the case of `CCCC(=O)NC1=C(Cl)C(=O)c2ccccc2C1=O`, the results for the AC50 in [3], in [11] and in [16] were 2.54 µM (active), 28.3 µM (active) and < 0.195 µM (active), respectively. Further, the IC50 in experiment [4] was 11.8 µM (inactive); in [5], 0.891 µM (active); in experiment [6] it was 3.93 µM (active); in experiment [8], > 66 µM (inactive); in [9] it was 6.78 µM (active); in [10] it was > 66 µM (inactive). The values for the IC50 in [13], in [14] and in experiment [15] were 12.7 µM (active), 14.5 µM (active) and 37.7 µM (inactive), respectively. Besides, the CC50 is 3.81 µM (active) in [7] and 27.4 µM (active) in [12].
For the compound `CC(/C=C/c1ccccc1)=N/NC(=O)c1cccc(Br)c1`, the IC50 is > 20 µM (inactive) in experiment [17]; 2.7 µM (active) in experiment [18]; > 66.6 µM (inactive) in [19]; > 20 µM (inactive) in experiment [22]; > 20 µM (inactive) in experiment [23]. For the same compound, the EC50 is > 20 µM (inactive) in experiment [20] and 3.65 µM (active) in experiment [21].
As to `Cc1ccc(OCCn2c3ccccc3n3nc(C)c(=O)nc23)cc1`, the AC50 in experiment [24] is 6.85 µM (active).
Consider `CCN(CC)S(=O)(=O)c1ccc(C(=O)NCC(c2cccs2)N2CCOCC2)cc1` (stereo not drawn), for which, in experiment [25], the IC50 is > 50 µM (inactive).
In the case of `COc1ccc(-c2nnc3oc(O)c(CCO)c(C)c2-3)cc1`, the IC50 in [26] was > 100 µM (not active); in experiment [27] it was > 100 µM (inactive); in experiment [28], > 100 µM (inactive).

For the origin of these results see ChEMBL document CHEMBL1201862, “PubChem BioAssay data set” (2004).
